Data as given in patent publication US7842690B2, “Cyclic hydroxylamine as psychoactive compounds” (BTG International Limited, priority 2003, dated 2010).
Counter-ions that a name gives are not always drawn.

Assays:
Type in all cases: in vivo
mouse = experiment: Black and white box test (Example 14); settings: for Parameter 1: Latency L (initial movement from the white to the black area), Mean / Parameter 2: Time spent in White area (TW), Mean: 5-min recording; for Parameter 3: Transitions/5 min (T), Mean: transitions between the two compartments; for Parameter 4: Total Activity: Atot, Mean: white and black compartments
Method: The characteristic action of anxiolytic agents is to cause a redistribution of exploratory activity and time spent in the white section.
Each mouse was placed into the centre of the white, brightly lit area bacldng the opening between the B/W compartments. Animals behaviour was recorded by a remote video camera for 5 minutes. The recordings were subsequently evaluated on the TV by two operators unaware of drug treatment. The following behavioural parameters were recorded: • a) the latency of the initial movement from the white to the black area: L (sec); • b) the time spent in the white area TW (sec); the time spent in the black area is calculated by the difference: […] (sec); • c) the number of transitions between the two compartments T (No./5 min); • d) the total activity in the white and black compartments, Atot (No./5 min); • e) the total activity in the white area throughout the time spent in the white area: • AtotW/TW (No./sec); • f) the total activity in the black area throughout the time spent in the black area: AtotB/TB (No./sec); • g) the total number of exploratory rearings: Rtot (No./5 min); • h) the total number of line crossings: Ctot (No./5 min); • i) the number of exploratory rearings in the white section RW/TW (No./sec); • j) the number of line crossings in the white section CW/TW (No./sec).
Each group was composed by 8 animals.

rats [1] = experiment: Elevated plus maze (X-maze) in rats; settings: 5-min period
From the text: The X-maze is constructed from Perspex® and comprises four arms (2 open, 2 closed), each 50 cm long by 9.5 wide and 40 high (closed, arms only) connected by a centre square (9.5×9.5). The open arm has a small lip (3 mm) to assist in the retention of the rat on the arm. The apparatus was housed in a room under subdued lighting conditions.
This model is based on the observation of spontaneous activity of rodents placed in an aversive environment produced by height and often spaces. […] Anxiolytic drugs increase the exploratory activity and the number of entries into the open arms. Rats were allowed at least 1 hour to acclimatise to the environment before testing commenced. Drug treatments were given IP in a pseudo-random, blind design, 40 minutes before behavioural testing, as appropriate. Rats were placed onto the centre square of the X-maze facing a specified open arm, and its behaviour was recorded by remote video over a 5 minute experimental period. The behavioural parameters were subsequently assessed by technicians reviewing the videotape and included: entries into each arm type, time spent on each arm type, rearing, stretch attend postures and head dips.

BKW male albino mice = experiment: Black and white box test (Example 10); settings: 5-min period; for TB = time in white section: signed value
rats [2] = experiment: Escape deficit test (learned helplessness), antidepressant activity; settings: rats treated IP for 15 days, unavoidable stress 16 h and escape test 24 h after last dosing; out of 30 trials; dose not given
Method: The “Escape deficit” test that derives from the classic paradigm of “learned helplessness” was used, as described by Meloni et al. in Pharmacol. Biochem. Behav. 46, 423-6 (1993) and Gambarana et al. in Behav. Pharmacol. 6, 66-73 (1995) and Neuropsychopharmacol. 21, 247-57 (1999). Exposure to an unavoidable stress induces […], which, after 24 hours, makes the rats unable to escape from a nociceptive stimulus. Rats exposed to unavoidable stress make 0-5 escapes out of 30 trials, while naïve rats realise 26-30 escapes. Classical anti-depressives prevent the occurrence of the escape deficit after chronic treatment (15 days).
Rats were treated intra-peritoneally (IP) for 15 days, and then submitted to the unavoidable stress (16 hours after the last dosing) prior to being subjected to the escape test (24 hours after the last dosing).

[3] = system: Male rats of the Wistar strain; experiment: Despair test (forced swim); settings: 50 mg/kg IP, injections 24, 5 and 1 hour prior to test, 5-min test, mean ± S.E.M.
[4] = system: Male rats of the Wistar strain; experiment: Reserpine-induced changes in open field behaviour; settings: reserpine 0.1 mg/kg SC daily for 14 days, acute 50 mg/kg IP 1 h prior to open field test, 5-min test, mean ± S.E.M.
Method: Rats treated with the compound of Example 1 were compared to either rats treated with the classical antidepressant, clomipramine or controls in the despair test (forced swim). The same groups were also tested for the reserpine-induced changes in open field behaviour.
Male rats of the Wistar strain (purchased from Charles River, Italy) weighing 220-240 g were used throughout all experiments. For at least 1 week prior to the experiment, the rats were housed four to a cage at a constant temperature of 21° C., and under a 12-h light/dark cycle (lights on between 08:00 and 20:00), with food and water available ad libitum.
An acute IP injection of clomipramine hydrochloride (50 mg/kg) or of the compound of Example 1 (0.2 and 0.5 mg/kg) or physiological saline was made in animals subjected to the reserpine-induced changes in the open field test (the injection was made together with the last reserpine administration, e.g. 1 h prior to the open field test).
All animals were gently manipulated by experienced facilities' keepers avoiding any environmental or physical stress. Rats subjected to drugs or physiological saline administration received an injection of a 1-mL standard volume of solution with a 23-gauge stainless steel needle of 31 mm length (for […]) or 21 mm length (for SC injections). The animals were randomly assigned to any treatment group and were used only once in the behavioural experiments.
Reserpine-induced changes in open field behaviour was studied according to the method described in Naunyn-Schmiedeberg's Arch. Pharmacol. 293: 109-114 (Vetulani et al., 1976). Reserpine (Sigma, USA) was dissolved in physiological saline and injected daily for 14 days at the dose of 0.1 mg/kg subcutaneously (SC). A period of 1 hour after the last injection of reserpine, animals were subjected to the open field test. This consisted of the measure of ambulation and rearing of the rat in a circular area divided into 17 equal sections and lighted by a centrally suspended lamp. The areas explored by the rat at least with anterior paws was recorded in 5 min test. The episodes of rearing towards the centre or the walls were also recorded in 5 min test.
All data were analysed using univariate random design analysis of variance (one-way ANOVA) and the post hoc Dunnett's test for multiple comparisons. A P-value of 0.05 or less was considered as indicative of a significant difference.

[5] = 0.125 mg/kg IP 40 min before test
[6] = 0.1 mg/kg IP 40 min before test
[7] = IP 40 min before test, dose not given
[8] = 1.25 mg/kg IP 40 min before test

Compound: ON1CCOCC1Cc1ccccc1 (centres unmarked) [Example P2, 3-benzylmorpholin-4-ol]
- Parameter 5: Total Activity in white area: AtotW/TW, Mean (mouse; 0.1 mg/kg): .519 No./sec
- Parameter 6: Total Activity in black area: AtotB/TB, Mean (mouse; 0.1 mg/kg): .571 No./sec
- Parameter 7: Rtot (total number of exploratory rearings), Mean (mouse; 0.1 mg/kg): 60.250 No./5 min
- Parameter 8: Ctot (total number of line crossings), Mean (mouse; 0.1 mg/kg): 108.375 No./5 min
- Parameter 9: RW/TW (exploratory rearings in the white section), Mean (mouse; 0.1 mg/kg): .099 No./sec
- Parameter 10: CW/TW (line crossings in the white section), Mean (mouse; 0.1 mg/kg): .420 No./sec
- Parameter 1: Latency L (initial movement from the white to the black area), Mean (mouse; 0.1 mg/kg): 19.625 s
- Parameter 2: Time spent in White area (TW), Mean (mouse; 0.1 mg/kg): 59.250 s
- Parameter 3: Transitions/5 min (T), Mean (mouse; 0.1 mg/kg): 10.000 No./5 min
- Parameter 4: Total Activity: Atot, Mean (mouse; 0.1 mg/kg): 168.625 No./5 min

Compound: ON1CCCCC1c1ccccc1 (centres unmarked) [Example P5, 2-phenylpiperidin-1-ol]
- Parameter 5: Total Activity in white area: AtotW/TW, Mean (mouse; 0.1 mg/kg): .571 No./sec
- Parameter 6: Total Activity in black area: AtotB/TB, Mean (mouse; 0.1 mg/kg): .708 No./sec
- Parameter 7: Rtot (total number of exploratory rearings), Mean (mouse; 0.1 mg/kg): 69.500 No./5 min
- Parameter 8: Ctot (total number of line crossings), Mean (mouse; 0.1 mg/kg): 127.500 No./5 min
- Parameter 9: RW/TW (exploratory rearings in the white section), Mean (mouse; 0.1 mg/kg): .123 No./sec
- Parameter 10: CW/TW (line crossings in the white section), Mean (mouse; 0.1 mg/kg): .448 No./sec
- Parameter 1: Latency L (initial movement from the white to the black area), Mean (mouse; 0.1 mg/kg): 20.625 s
- Parameter 2: Time spent in White area (TW), Mean (mouse; 0.1 mg/kg): 105.125 s
- Parameter 3: Transitions/5 min (T), Mean (mouse; 0.1 mg/kg): 14.750 No./5 min
- Parameter 4: Total Activity: Atot, Mean (mouse; 0.1 mg/kg): 197.000 No./5 min

Compound: cis-1,2,3,4,5,6a,7,8,9,10a,10b-dodeca-1,4-oxazino-[3′,4′:2,3]benzo[d]isoxazol-4-one [Comparative Compound A]
- % time spent in open arms (rats [1]; [5]): 21 ± 11%
- No. of entries in open arms (rats [1]; [5]): 3 ± 1.1
- Atot = Total exploratory activity (BKW male albino mice; [6]): +53.7
- CB/TB = crossings in the white compartment/time in white (BKW male albino mice; [6]): +0.01
- CN/TN = crossings in the black compartment/time in black (BKW male albino mice; [6]): +0.08
- Ctot = total number of crossings (BKW male albino mice; [6]): +19.1
- FI = Initial potency (BKW male albino mice; [6]): +8.1
- PT = Total passages through the partition (BKW male albino mice; [6]): +4.1
- RB/TB = rearings in the white compartment/time in white (BKW male albino mice; [6]): +0.04
- RN/TN = rearings in the black compartment/time in black (BKW male albino mice; [6]): +0.13
- Rtot = Total number of rearings (BKW male albino mice; [6]): +23.9
- TB = time in white section (BKW male albino mice; [6]): +52.1
- No. of escapes (rats [2]): 3.5 ± 0.9

Compound: CN(C)CCCN1c2ccccc2CCc2ccc(Cl)cc21 [Clomipramine, clomipramine hydrochloride, reference compound]
- Duration of Immobility [3]: 105.95 ± 9.13
- No. of Floor Units (ambulation) [4]: 84.6 ± 8.1
- Rearing Episodes [4]: 2.4 ± 0.2

Compound: ON1CCOCC1c1ccccc1 (centres unmarked) [Example P1, 3-phenylmorpholin-4-ol]
- Parameter 5: Total Activity in white area: AtotW/TW, Mean (mouse; 0.1 mg/kg): .608 No./sec
- Parameter 6: Total Activity in black area: AtotB/TB, Mean (mouse; 0.1 mg/kg): .652 No./sec
- Parameter 7: Rtot (total number of exploratory rearings), Mean (mouse; 0.1 mg/kg): 60.375 No./5 min
- Parameter 8: Ctot (total number of line crossings), Mean (mouse; 0.1 mg/kg): 137.000 No./5 min
- Parameter 9: RW/TW (exploratory rearings in the white section), Mean (mouse; 0.1 mg/kg): .155 No./sec
- Parameter 10: CW/TW (line crossings in the white section), Mean (mouse; 0.1 mg/kg): .454 No./sec
- Parameter 1: Latency L (initial movement from the white to the black area), Mean (mouse; 0.1 mg/kg): 20.125 s
- Parameter 2: Time spent in White area (TW), Mean (mouse; 0.1 mg/kg): 116.750 s
- Parameter 3: Transitions/5 min (T), Mean (mouse; 0.1 mg/kg): 19.500 No./5 min
- Parameter 4: Total Activity: Atot, Mean (mouse; 0.1 mg/kg): 197.375 No./5 min

Compound: CN1C(=O)CN=C(c2ccccc2)c2cc(Cl)ccc21 [Diazepam]
- % time spent in open arms (rats [1]; [7]): 25 ± 5%
- No. of entries in open arms (rats [1]; [7]): 4 ± 0.6
- Parameter 5: Total Activity in white area: AtotW/TW, Mean (mouse; 1.25 mg/kg): .723 No./sec
- Parameter 6: Total Activity in black area: AtotB/TB, Mean (mouse; 1.25 mg/kg): .723 No./sec
- Parameter 7: Rtot (total number of exploratory rearings), Mean (mouse; 1.25 mg/kg): 68.750 No./5 min
- Parameter 8: Ctot (total number of line crossings), Mean (mouse; 1.25 mg/kg): 144.375 No./5 min
- Parameter 9: RW/TW (exploratory rearings in the white section), Mean (mouse; 1.25 mg/kg): .124 No./sec
- Parameter 10: CW/TW (line crossings in the white section), Mean (mouse; 1.25 mg/kg): .599 No./sec
- Parameter 1: Latency L (initial movement from the white to the black area), Mean (mouse; 1.25 mg/kg): 13.750 s
- Parameter 2: Time spent in White area (TW), Mean (mouse; 1.25 mg/kg): 97.750 s
- Parameter 3: Transitions/5 min (T), Mean (mouse; 1.25 mg/kg): 13.375 No./5 min
- Parameter 4: Total Activity: Atot, Mean (mouse; 1.25 mg/kg): 213.125 No./5 min
- Atot = Total exploratory activity (BKW male albino mice; [8]): +46.7
- CB/TB = crossings in the white compartment/time in white (BKW male albino mice; [8]): +0.08
- CN/TN = crossings in the black compartment/time in black (BKW male albino mice; [8]): +0.1
- Ctot = total number of crossings (BKW male albino mice; [8]): +30.7
- FI = Initial potency (BKW male albino mice; [8]): +12.7
- RB/TB = rearings in the white compartment/time in white (BKW male albino mice; [8]): +0.06
- RN/TN = rearings in the black compartment/time in black (BKW male albino mice; [8]): +0.09
- Rtot = Total number of rearings (BKW male albino mice; [8]): +21.2
- TB = time in white section (BKW male albino mice; [8]): +33.2

Compound: ON1CCCCC1Cc1ccccc1 (centres unmarked) [Example P6, 2-benzylpiperidin-1-ol]
- Parameter 5: Total Activity in white area: AtotW/TW, Mean (mouse; 0.1 mg/kg): .705 No./sec
- Parameter 6: Total Activity in black area: AtotB/TB, Mean (mouse; 0.1 mg/kg): .835 No./sec
- Parameter 7: Rtot (total number of exploratory rearings), Mean (mouse; 0.1 mg/kg): 75.625 No./5 min
- Parameter 8: Ctot (total number of line crossings), Mean (mouse; 0.1 mg/kg): 153.750 No./5 min
- Parameter 9: RW/TW (exploratory rearings in the white section), Mean (mouse; 0.1 mg/kg): .190 No./sec
- Parameter 10: CW/TW (line crossings in the white section), Mean (mouse; 0.1 mg/kg): .515 No./sec
- Parameter 1: Latency L (initial movement from the white to the black area), Mean (mouse; 0.1 mg/kg): 14.500 s
- Parameter 2: Time spent in White area (TW), Mean (mouse; 0.1 mg/kg): 152.125 s
- Parameter 3: Transitions/5 min (T), Mean (mouse; 0.1 mg/kg): 24.250 No./5 min
- Parameter 4: Total Activity: Atot, Mean (mouse; 0.1 mg/kg): 229.375 No./5 min
